Reference: paper PMC8143347, “Metabolism and Interspecies Variation of IMMH-010, a Programmed Cell Death Ligand 1 Inhibitor Prodrug” (Pharmaceutics, 2021)

Experiments:
[1] = Identification of IMMH-010 metabolites in rat urine, bile and feces; assay type: in vivo; settings: after oral IMMH-010 maleate 5 mg/kg
Protocol: After oral administration of IMMH-010 maleate (5 mg/kg), two rats were housed in metabolic cages to collect urine and feces samples for 24 h. Feces samples were homogenized with methanol at 1:10 (w/v) and urine samples were diluted 10-fold in methanol. Additionally, two rats were bile duct cannulated under isoflurane anesthesia. After oral administration of IMMH-010 maleate (5 mg/kg), bile samples were collected over 0–2 h after dosing.
LC-MS was performed using a Thermo Scientific Q Exactive HF hybrid quadrupole-Orbitrap mass spectrometer. Reverse-phase liquid chromatography was performed on a Zorbax C18 column (100 × 2.1 mm, 3.5 μm). Mobile phase A was 0.1% aqueous formic acid and mobile phase B was 0.1% formic acid in methanol. The mobile phase was delivered with the following gradient elution profile: 0 min, 10% B; 15 min, 40% B; 17–19 min, 100% B; 20–23 min, 10% B. The total runtime for each injection was 23 min. The flow rate was 0.3 mL/min, and the column oven was maintained at 30 °C.
The analysis was performed in full mass spectrometry with data-dependent tandem mass spectrometry (MS/dd-MS^2) mode. For a full mass spectrometry scan, the selected scan range was from m/z 100 to 500, the resolution was 70,000, and the automatic gain control (AGC) target was set to 1.0 × 10^6 with a maximum injection time (IT) of 100 ms. For the dd-MS^2 scan, the fragmentation mass spectra were recorded at a mass resolving power of 17,500 fwhm with a quadrupole isolation window of 1.5 m/z for precursor ions. The AGC target was 2.0 × 10^5 and the maximum IT was 50 ms.
Xcalibur 4.1 software (Thermo Fisher Scientific, San Jose, CA, USA) was used for instrument control and data processing. Compound Discover 2.0 software was used for metabolite identification.

[2] = Plasma and tumor PK in B16F10 melanoma xenograft mice; assay type: in vivo, mouse
Protocol: (§1) After the final dose, tumor and blood samples treated with IMMH-010 maleate (5 mg/kg) were collected over 72 h. Blood was exposed in an EP tube containing 500 mM NaF and 0.5% heparin sodium. Plasma samples were obtained by centrifugation, and tumor tissues were homogenized with 3 volumes (w/v) of saline on ice. The concentration of IMMH-010 and YPD-29B in plasma and tumor samples was quantitated by an LC-MS/MS method.
(§2) LC-MS/MS was performed using a triple quadrupole mass spectrometer (API 4000, AB Sciex, Framingham, MA, USA) with an ultra-performance liquid chromatography system (LC-30A, Shimadzu, Kyoto, Japan). Analyst 1.6.2 software (AB Sciex) was used for data acquisition and analysis. Mobile phase A was 1 mM ammonium acetate and mobile phase B was methanol. The mobile phase was delivered with the following gradient elution profile: 0–2.8 min, 70% B; 2.9 min, 85% B; 3 min, 90% B; 3.1–6.8 min, 100% B; 6.9–12 min, 70% B. The flow rate was 0.3 mL/min, and the column oven was maintained at 35 °C. The specific transitions monitored were 641.3 → 494.2 for IMMH-010, 597 → 155 for YPD-29B, 512 → 247 for M3, and 524 → 246 for M4.
(§3) All statistics were calculated using GraphPad Prism 8.0 software (San Diego, CA, USA) designed for one-way ANOVA. Pharmacokinetic parameters were calculated with a non-compartmental analysis using WinNonlin Version 6.3 (Pharsight, Mountain View, CA, USA). ADMET predictor V10.0 (Simulations Plus, Inc., Lancaster, CA, USA) and Microsoft Excel (Microsoft, Redmond, WA, USA) were used to process the data (i.e., half-life (t1/2) and hepatic clearance (CLhep) determination). Data were expressed as means ± standard deviations (SD). Results were considered statistically significant if the p-value <0.05, <0.01 and <0.001.

[3] = Plasma and tumor PK in MC38 colon cancer xenograft mice; assay type: in vivo, mouse
Protocol: as §1, §2, §3

[4] = PK study in male cynomolgus monkeys; assay type: in vivo, cynomolgus monkey; settings: single oral IMMH-010 maleate 5 mg/kg
Protocol: IMMH-010 maleate was suspended with 0.5% carboxymethyl cellulose to make a 1 mg/mL suspension for PO gavage. Four male cynomolgus monkeys received a single oral dose of IMMH-010 maleate (5 mg/kg). Serial blood samples were collected upto 48 h. The plasma was separated and the plasma concentrations of IMMH-010 and YPD-29B were determined by LC-MS/MS.
as §2, §3

B16F10 melanoma = test: Antitumor activity in B16F10 melanoma xenograft model; assay type: in vivo, mouse; settings: B16F10, CTX 80 mg/kg weekly, day 19
Protocol: (§4) The antitumor activity of IMMH-010 was evaluated by B16F10 melanoma and MC38 colon carcinoma xenograft models. The B16F10 and MC38 cells were resuspended in saline (1.5 × 10^6 cells/0.2 mL saline) and injected subcutaneously into the right flanks of each mouse on day 0. The treated mice received once-daily oral administration of IMMH-010 maleate (1.25, 2.5, 5, and 10 mg/kg, n = 10) by oral gavage (PO) for 19 consecutive days, whereas the control mice received vehicle (0.5% carboxymethyl cellulose, n = 10). The mice in the positive control group received the anti-mouse PD-L1 antibody (696618M2, Bio X Cell, West Lebanon, NH, USA) at 10 mg/kg intraperitoneally every 3 days (n = 10). The first-line antineoplastic drug cyclophosphamide (CTX) was administered at doses of 80 and 40 mg/kg weekly in the B16F10 and MC38 models (n = 10), respectively. After the last treatment, on day 19, the mice were sacrificed, and the tumor and spleen were stripped and weighed. The tumor growth inhibition (TGI) was calculated as TGI = (1 − treatment group tumor weight/vehicle group tumor weight) × 100.

MC38 colon carcinoma = test: Antitumor activity in MC38 colon carcinoma xenograft model; assay type: in vivo, mouse; settings: MC38, CTX 40 mg/kg weekly, day 19
Protocol: as §4

[5] = Body weight in B16F10 model; settings: B16F10, CTX 80 mg/kg weekly
Protocol: as §4

[6] = Body weight in MC38 model; settings: MC38, CTX 40 mg/kg weekly
Protocol: as §4

[7] = Metabolism in human liver microsomes; assay type: in vitro ADME; settings: NADPH-dependent
Protocol: (§5) To compare the differences in IMMH-010 metabolism between the liver and intestine, IMMH-010 (10 μM) was incubated with rat liver and intestinal S9 homogenate protein (1 mg protein/mL) and with human liver and intestinal microsomes (0.2 mg protein/mL) in a final volume of 0.2 mL Tris-HCl buffer (50 mM, pH 7.4) containing 5 mM MgCl2. The incubations were performed in duplicate in the presence and absence of an NADPH regenerating system. After 2 min preincubation at 37 °C, reactions were initiated by the addition of IMMH-010 (10 μM). Incubations were terminated by acetonitrile at 0, 10, and 20 min. IMMH-010, YPD-29B, M2, and M3 were quantified by LC-MS/MS assay. Midazolam (10 μM, a substrate of CYP3A4) was set as the positive control.

[8] = Metabolism in human intestinal microsomes; assay type: in vitro ADME; settings: NADPH-dependent
Protocol: as §5

[9] = tested on: cDNA-expressed human CYPs and FMOs; test: IMMH-010 metabolism by cDNA-expressed human CYPs and FMOs; assay type: in vitro ADME; settings: IMMH-010 10 µM, 50 pmol enzyme, 30 min, NADPH
Protocol: cDNA-expressed human CYPs were also used to investigate the enzymes mediating IMMH-010 metabolism. IMMH-010 (10 µM) was incubated individually with 50 pmol of 10 individual cDNA-expressed human CYPs (CYP1A1, CYP1A2, CYP2A6, CYP2B6, CYP2C9, CYP2C19, CYP2D6, CYP2E1, CYP2J2, or CYP3A4) and three cDNA-expressed human FMO enzymes (FMO1, FMO3, and FMO5) at 37 °C for 30 min. An NADPH regeneration system was added to initiate the reactions. Probe substrates of the CYPs were used as the positive controls. Incubations without NADPH served as the negative controls. All reactions were carried out in a final volume of 0.2 mL Tris-HCl buffer (50 mM, pH 7.4) containing 5 mM MgCl2 and conducted in triplicate. All incubations were terminated by 2 volumes of acetonitrile. After centrifugation at 14,000 rpm for 5 min, the samples were analyzed by LC-MS/MS.

[10] = Metabolism in human liver S9 fractions; assay type: in vitro ADME; settings: human, monkey, dog and rat liver S9 incubations of IMMH-010 10 μM
Protocol: IMMH-010 metabolism was compared in human, monkey, dog, and rat liver S9 homogenates. IMMH-010 (10 μM) was incubated with liver S9 homogenate protein (0.5 mg protein/mL) and a reduced nicotinamide adenine dinucleotide phosphate (NADPH) regenerating system in a final volume of 0.2 mL Tris-HCl buffer (50 mM, pH 7.4) containing 5 mM MgCl2. The reactions were performed in triplicate. After 2 min of preincubation at 37 °C, reactions were initiated by the addition of IMMH-010 (10 μM). The samples were collected 0, 5, 10, and 20 min after incubation, 2 volumes of acetonitrile were added to terminate the reaction. After vortexing and centrifugation, IMMH-010, YPD-29B, M3, and M4 in the supernatant were analyzed by LC-MS/MS.
as §3

SMILES: O=C(O)[C@H](CO)NCc1cc(Cl)c(OCc2cccc(-c3ccccc3)c2Br)cc1OCc1cccnc1 [YPD-29B]
- metabolite in rat feces and bile [1]: detected
- metabolite in rat urine ([1]; 24 h urine): found
- area under the plasma concentration versus time curve (AUC) ([2]; B16F10 mice, IMMH-010 maleate 5 mg/kg PO): ~0.0699 µg·h/mL
- half-life ([2]; C57BL/6, mouse, plasma, B16F10 mice, IMMH-010 maleate 5 mg/kg PO, read-out: elimination half-life (t1/2β) in plasma (converted)): 1.61 h
- Tmax ([2]; C57BL/6, mouse, plasma, B16F10 mice, IMMH-010 maleate 5 mg/kg PO, read-out: mean time of peak plasma concentration (converted)): 0.25 h
- Cmax ([2]; C57BL/6, mouse, plasma, B16F10 mice, after last oral dose of IMMH-010 maleate 5 mg/kg for 19 days, read-out: mean peak concentration (Cmax) in plasma): 0.0427 µg/mL
- Kp ([2]; C57BL/6, mouse, tumor and plasma, B16F10 mice, IMMH-010 maleate 5 mg/kg PO, read-out: tissue/plasma ratio (AUCtumor/AUCplasma)): 2.1
- half-life ([2]; C57BL/6, mouse, tumor, B16F10 mice, IMMH-010 maleate 5 mg/kg PO, read-out: t1/2β in tumor (converted)): 12.4 h
- Tmax ([2]; C57BL/6, mouse, tumor, B16F10 mice, IMMH-010 maleate 5 mg/kg PO, read-out: time of maximum concentration in the tumor): 0.25 to 1 h
- t1/2β in tumors relative to plasma ([2]; range over B16F10 and MC38 xenograft mice): 7.6–25 times
- half-life ([3]; C57BL/6, mouse, plasma, IMMH-010 maleate 5 mg/kg PO, read-out: elimination half-life (t1/2β) in plasma (converted)): 1.76 h
- Tmax ([3]; C57BL/6, mouse, plasma, IMMH-010 maleate 5 mg/kg PO, read-out: mean time of peak plasma concentration (converted)): 0.25 h
- Cmax ([3]; C57BL/6, mouse, plasma, after last oral dose of IMMH-010 maleate 5 mg/kg for 19 days, read-out: mean peak concentration (Cmax) in plasma): 0.0644 µg/mL
- Kp ([3]; C57BL/6, mouse, tumor and plasma, IMMH-010 maleate 5 mg/kg PO, read-out: tissue/plasma ratio (AUCtumor/AUCplasma)): 2.4
- half-life ([3]; C57BL/6, mouse, tumor, IMMH-010 maleate 5 mg/kg PO, read-out: t1/2β in tumor (converted)): 45 h
- Tmax ([3]; C57BL/6, mouse, tumor, IMMH-010 maleate 5 mg/kg PO, read-out: time of maximum concentration in the tumor): 0.25 to 1 h
- area under the plasma concentration versus time curve (AUC) ([3]; IMMH-010 maleate 5 mg/kg PO): ~0.0699 µg·h/mL
- AUC ([4]; cynomolgus monkey, plasma): 0.186 µg·h/mL
- Cmax ([4]; cynomolgus monkey, plasma): 0.0355 µg/mL
- half-life ([4]; cynomolgus monkey, plasma, read-out: mean t1/2β in plasma (converted)): 9 h
- Tmax ([4]; cynomolgus monkey, plasma, read-out: observed time to peak concentration): ≤ 1.5 h
- molar AUC ratio of YPD-29B to IMMH-010 [4]: 4.17

SMILES: O=P1(N(CCCl)CCCl)NCCCO1 (stereo not drawn) [CTX, cyclophosphamide, reference compound]
- Tumor Weight (g) X ± SD (B16F10 melanoma): 0.23 ± 0.18 g
- Tumor Weight TGI (%) (B16F10 melanoma): 90%
- Tumor Weight (g) X ± SD (MC38 colon carcinoma): 0.17 ± 0.10 g
- Tumor Weight TGI (%) (MC38 colon carcinoma): 90%
- Body Weight (g) X ± SD Finish ([5]; finish day 19): 19.2 ± 0.8 g
- Body Weight (g) X ± SD Start ([5]; start): 16.94 ± 0.43 g
- Body Weight (g) X ± SD Finish ([6]; finish day 19): 24.5 ± 0.9 g
- Body Weight (g) X ± SD Start ([6]; start): 22.0 ± 0.8 g

SMILES: O=Cc1cc(Cl)c(OCc2cccc(-c3ccccc3)c2Br)cc1OCc1cccnc1 [M2]
- transformation ratio of IMMH-010 to this metabolite [7]: < 2%
- transformation ratio of IMMH-010 to this metabolite [8]: < 2%
- enzyme with the highest metabolic activity for formation of the metabolite [9]: CYP2D6
- metabolite in rat feces and bile [1]: detected

SMILES: OCc1cc(Cl)c(OCc2cccc(-c3ccccc3)c2Br)cc1OCc1cccnc1 [M3]
- amount of minor metabolite formed [10]: < 3%
- transformation ratio of IMMH-010 to this metabolite [7]: < 2%
- transformation ratio of IMMH-010 to this metabolite [8]: < 2%
- enzyme with the highest metabolic activity for formation of the metabolite [9]: CYP2D6
- metabolite in rat feces and bile [1]: detected

SMILES: O=C(O)c1cc(Cl)c(OCc2cccc(-c3ccccc3)c2Br)cc1OCc1cccnc1 [M4]
- amount of minor metabolite formed [10]: < 3%
- formation of the metabolite in CYP and FMO incubations [9]: not detected
- metabolite in rat feces and bile [1]: detected
